Series [1] deals with rat hippocampal neurons expressing P301L mutant eGFP-tau. Briefly: P301L mutant tau mislocalization to dendritic spines, kinase inhibitor treatment. It counts as cell-based. From the text: FIG. 5A. […] FIG. 5B. […] FIG. 5C. […] FIG. 5D. […] FIG. 5E.
Series [2] concerns cultured rat hippocampal neurons expressing A53T αS. The series is described as follows: AMPA receptor mEPSCs in neurons transfected with A53T αS. It counts as cell-based. The following applies: GSK3β inhibition with CHIR.
Series [3] deals with cultured G2-3 (A53T αS) mouse hippocampal neurons expressing eGFP-WT tau. The series is described as follows: A53T αS-dependent mislocalization of tau to dendritic spines, GSK3β inhibition. The following applies: 3 μM, applied at 16 DIV, imaged at 21 DIV. Type of series: cell-based.
Series [4] deals with low density hippocampal neurons from G2-3 mice. Briefly: GluA1 surface expression in dendritic spines of G2-3 neurons. Type of series: cell-based, mouse. From the text:
FIG. 21A. Photomicrographs of neurons from G2-3 mice and their TgNg littermates without (top two panels) and with treatment of CHIR-99021 (bottom two panels). As previously described (Liao et al. 1999 Nature Neuroscience 2(1): 37-43), live neurons were stained for N-GluA1 antibodies (green), fixed, permeablized, and stained for PSD-95 (red). Arrows indicate tightly clustered surface N-GluA1 colocalized with PSD-95, whereas weak, non-specific N-GluR1 immunoreactivity appeared along the dendritic shafts as diffuse staining rather than distinct clusters in G2-3 neurons (arrow heads). The diffuse staining is likely due to the presence of extrasynaptic AMPA receptors (Newpher and Ehlers 2008 Neuron 58: 472-97). […] Scale bar: […]. FIG. 21B. GluA1 surface fluorescence in PSD-95 immunoreactive spines was normalized to dendritic fluorescence. […] For all n=8; data are expressed as mean±s.e.m. […]
Cultured neurons were fixed and permeabilized successively with 4% paraformaldehyde, 100% methanol, and 0.2% Triton X-100 (Lin et al. 2009 Neuropsychopharmacology 34(9):2097-111). […] In FIG. 4A-FIG. 4B, the number of synaptophysin clusters and their colocalization with boutons of neurons expressing eGFP or eGFP-labeled αS were automatically counted using ImageJ software (available on the world wide web at imagej.nih.gov/ij/). […] DAPI stained nuclei were manually counted from wide-field photomicrographs. […]

The subject of series [5] is primary cultured rat hippocampal neurons. Briefly: Cell death of cultured neurons under kinase inhibitor treatment. Type of series: cell-based. The following applies: Sprague-Dawley, 24 h. Here is the method:
Roscovitine and CHIR99021 were purchased from Sigma-Aldrich (St. Louis, Mo.) and were diluted in DMSO to four 1000× concentration aliquots for ultimate concentrations in neurobasal medium of […]. Primary cultured rat hippocampal neurons transfected with dsRed and eGFP-P301L-tau were treated with one of four 1000× aliquots or DMSO vehicle on DIV 20-22. Treated cells were incubated for 24 hours prior to imaging on DIV 21-23. Cell death was visually assessed under differential interference contrast (DIC) for decreased cell density, lost soma adhesion, gross qualitative neurite retraction. If evidence of cell death was observed under DIC, cells were fixed in 4% sucrose and 4% paraformaldehyde in PBS and stained with 300 nM DAPI in PBS. DAPI stained cells were analyzed under fluorescent microscopy for nuclear pyknosis and karyorrhexis; dsRed expressing cells were analyzed for spine loss. If no cell death was evident under DIC, live fluorescent images were acquired and analyzed as above.

The subject of series [6] is rat hippocampal neurons expressing GFP-WT-tau. The series is described as follows: Tau missorting to dendritic spines in mechanically injured (stretched) neurons, TBI model. Type of series: cell-based. The following applies: 10 stretches, 2% strain; AP peptide 1 μM. Here is the method:
FIG. 12A. Representative live images of cultured rat hippocampal neurons that had been co-transfected with plasmids of DsRed (left lane; a red fluorescence protein to label dendritic spines) and green fluorescence protein (GFP)-tagged wild-type tau (GFP-WT-tau; middle lane) with overlay images on the right lane 2 days after the delivery of a mechanical protocol. The neurons were cultured on a plastic membrane and were stretched by a computer-controlled mechanical device, as described in Example 2 (10 stretches; 2% mechanical strain; 1 second interval between stretches) in 21 days in vitro (DIV). Arrows denote dendritic spines that contain tau and triangles denote dendritic spines devoid of tau. FIG. 12B. […] FIG. 12C. […] ANOVA was used in FIG. 12B and FIG. 12C; *** indicates p<0.001.
In a tauopathy model for traumatic brain injuries (TBI) based on the model of Hemphill et al. 2011 PLoS One. 6(7):e2289), mechanical injuries to neurons induce tau missorting to dendritic spines (FIG. 12). The methods of Hemphill et al. were modified such that plasmids encoding GFP-tagged tau were introduced into neurons, allowing detection of tau abnormalities as well as tau-mediated synaptic deficits. Briefly, neurons were plated onto medical grade silicone elastomer membranes (0.010 inch NRV, Specialty Manufacturing, Inc., Saginaw, Mich.) and glued inside a reducing well. […]

In series [7] the test system is neurons expressing GFP-tagged P301L-tau. The series is described as follows: Missorting of tau to dendritic spines in neurons expressing P301L mutant tau, peptide treatment. It counts as cell-based, rat. The following applies: for proportion of dendritic spines that contain tau (tau mis-sorting caused by P301L mutation): 21 DIV neurons, GFP-tagged P301L-tau, peptide 1 μM for 3 days. Here is the method:
FIG. 10A-FIG. 10B show missorting of tau to dendritic spines caused by P301L mutation is blocked by Peptide 1 and Peptide 2 but not Peptide 3. FIG. 10A 21 days in vitro (DIV) neurons expressing DsRed (left panels) and GFP-tagged P301L-tau (middle panels) were treated with AP peptide (Peptide 2; 1 μM) for 3 days (top panels: untreated; bottom panels: treated).
Transfected cells were continually bathed in neurobasal media and were passively perfused with medical-grade 95% O2-5% CO2. Micrographs were taken on a Nikon epifluorescent inverted microscope with 60× oil lens with a computerized focus motor at DIV 21-23. All digital images were processed using METAMORPH Imaging System (Universal Imaging Corporation, Molecular Devices, San Jose, Calif.). Images were taken as 15 plane stacks at 0.5 micron increments, processed by deconvolution to the nearest planes, and averaged against other stacked images. A dendritic spine was defined as having an expanded head diameter, greater than 50% larger in diameter than the neck. The number of spines per neuron were counted and normalized to a […] length of dendritic shaft. […]

Series [8] concerns rat hippocampal neurons expressing GFP-tagged wild-type human tau. The series is described as follows: Mislocalization of tau to dendritic spines caused by Aβ oligomers. It counts as cell-based. The following applies: Aβ oligomers 0.1 μM with AP peptide 1 μM, 3 days. Here is the method:
FIG. 11A Cultured 21 days in vitro (DIV) rat hippocampal neurons expressing DsRed (left panels) and GFP-tagged wild-type human tau (middle panels) were untreated (top panels), treated with Aβ oligomers alone (0.1 μM) (middle panels), or treated with Aβ oligomers (0.1 μM) with AP peptide (1 μM) (bottom panels) for 3 days.

[9] abbreviates: 500 nM chir99021 and 500 nM roscovitine in combination.
[10] abbreviates: either drug alone, concentrations up to 5 μM.

“Also recorded” adds a separate entry of the source.

As for `Cc1c[nH]c(-c2cnc(NCCNc3ccc(C#N)cn3)nc2-c2ccc(Cl)cc2Cl)n1` [CHIR99021], the “percentage of eGFP-containing spines” value is recorded as “reduced the percentage of eGFP-containing spines to that of wild type eGFP-tau” in series [1] (setting [9]) and “neither drug alone, at concentrations up to 5 μM, lowered the percentage of eGFP-containing spines to control levels” in series [1] (setting [10]). Further, the “postsynaptic deficits (mEPSC amplitude) caused by A53T αS transfection” value in series [2] is reported as “completely reverse”. In series [3], the “increase in dendritic spines containing mislocalized eGFP-tau in G2-3 neurons” value is given as “blocked”. For the same molecule, the “surface N-GluA1 synaptic localization (colocalization with PSD-95)” value in series [4] (listed as CHIR) is “strong colocalization of PSD-95 and N-GluA1 clusters is restored”; in series [4] (listed as CHIR-99021), “restored surface N-GluA1 synaptic localization”. Besides, the “concentration that killed the neurons” value in series [5] is “above 5 μM”. The “drug concentration at which overt cell death was observed” value in series [5] was “exceeded 5 M”.

Consider `CC[C@H](CO)Nc1nc(NCc2ccccc2)c2ncn(C(C)C)c2n1` [roscovitine], for which the “percentage of eGFP-containing spines” value is “reduced the percentage of eGFP-containing spines to that of wild type eGFP-tau” in series [1] (setting [9]) and “neither drug alone, at concentrations up to 5 μM, lowered the percentage of eGFP-containing spines to control levels” in series [1] (setting [10]).

Take “H2N-GRKKRRQRRRPQDHGAEIVYKAPVVSGDTAPRHLSNVS ST-OH (H-GRKKRRQRRRPQDHGAEIVYKAPVVSGDTAPRHLSNVSST-OH) [Peptide 2]”: the “proportion of dendritic spines containing tau after mechanical stretches” value in series [6] is “blocked tau missorting to dendritic spines”. The results for the “proportion of dendritic spines that contain tau (tau mis-sorting caused by P301L mutation)” value in series [7] and in series [7] (listed as AP peptide) were “block mislocalization of tau” and “blocked tau mis-sorting; also recorded: significantly decreased”, respectively. Besides, in series [7] (neurons expressing P301L mutant tau), the “strength of effect on tau mis-sorting compared with WT peptide” value was “stronger effect”. Also, the “proportion of dendritic spines that contain tau, increase caused by Aβ oligomers” value in series [8] was “blocked”; in series [8] (listed as AP peptide), “block tau mislocalization; also recorded: can block tau missorting to dendritic spines”.

As to “H2N-GRKKRRQRRRPQDHGAEIVYKEPVVSGDTEPRHLSNVS ST-OH (H-GRKKRRQRRRPQDHGAEIVYKEPVVSGDTEPRHLSNVSST-OH) [Peptide 3]”, the entries for the “proportion of dendritic spines that contain tau (tau mis-sorting caused by P301L mutation)” value in series [7], in series [7] (listed as EP Peptide) and in series [7] (listed as EP peptide) were “did not block”, “No decrease” and “did not block tau mis-sorting”, respectively.
